# Data published in patent US8163793B2, “Proline derivatives” (Hoffman-La Roche Inc., priority 2009, dated 2012).
# What was measured:
# [1] = target: Cathepsin S (UniProt P25774); assay: Cathepsin enzyme inhibition assay (fluorogenic peptide substrate Z-Val-Val-Arg-AMC), Cathepsin S; format: biochemical, human and mouse; settings: enzyme 1 nM, substrate 20 μM, pH 6.5; read-out: CatS IC50
# Summary of the method: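 Compounds were combined with 1 nM human or mouse enzyme, and substrate then started the reaction. The buffer was potassium phosphate (100 mM, pH 6.5) containing EDTA-Na 5 mM, Triton X-100 0.001% and […] 5 mM.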
# [2] = target: Cat L (UniProt P07711); assay: Cathepsin enzyme inhibition assay (fluorogenic peptide substrate Z-Val-Val-Arg-AMC), Cathepsin L; format: biochemical, human and mouse; settings: enzyme 1 nM, substrate 20 μM, pH 6.5; read-out: CatL IC50
# Summary of the method: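 Fluorogenic cleavage of Z-Val-Val-Arg-AMC (20 μM) by 1 nM Cat L was monitored at ex 360/em 465 nm for 20 min, the linear phase. The buffer was 100 mM potassium phosphate pH 6.5 with 5 mM EDTA and DTT. IC50 values were derived by standard methods, in μM.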
structure (smiles),measurement,setting,value
"CCN1CCN(c2ccc(S(=O)(=O)[C@@H]3C[C@@H](C(=O)NC4(C#N)CC4)N(c4ncccc4C(F)(F)F)C3)c(Cl)c2)CC1 [Example 190, (2S,4R)-4-[2-Chloro-4-(4-ethyl-piperazin-1-yl)-benzenesulfonyl]-1-(3-trifluoromethyl-pyridin-2-yl)-pyrrolidine-2-carboxylic acid (1-cyano-cyclopropyl)-amide]",IC50,[1],1.5 nM
same,IC50,[2],5160 nM
"CCN1CCN(c2ccc(S(=O)(=O)[C@@H]3C[C@H](C(=O)NC4(C#N)CC4)N(c4ncccc4C(F)(F)F)C3)c(Cl)c2)CC1 [Example 191, (2R,4R)-4-[2-Chloro-4-(4-ethyl-piperazin-1-yl)-benzenesulfonyl]-1-(3-trifluoromethyl-pyridin-2-yl)-pyrrolidine-2-carboxylic acid (1-cyano-cyclopropyl)-amide]",IC50,[1],107 nM
same,IC50,[2],≥ 25000 nM
"Cc1cc(N2C[C@H](S(=O)(=O)c3ccccc3C(F)(F)F)C[C@H]2C(=O)NC2(C#N)CC2)n(-c2ccccc2)n1 [Example 192, (2S,4R)-1-(5-Methyl-2-phenyl-2H-pyrazol-3-yl)-4-(2-trifluoromethyl-benzenesulfonyl)-pyrrolidine-2-carboxylic acid (1-cyano-cyclopropyl)-amide]",IC50,[1],0.5 nM
same,IC50,[2],43700 nM
"Cc1cc(N2C[C@H](S(=O)(=O)c3ccccc3C(F)(F)F)C[C@H]2C(=O)NC2(C#N)CC2)n(-c2ccnc(Cl)c2)n1 [Example 193, (2S,4R)-1-[2-(2-Chloro-pyridin-4-yl)-5-methyl-2H-pyrazol-3-yl]-4-(2-trifluoromethyl-benzenesulfonyl)-pyrrolidine-2-carboxylic acid (1-cyano-cyclopropyl)-amide]",IC50,[1],0.2 nM
same,IC50,[2],28500 nM
"Cc1cc(N2C[C@H](S(=O)(=O)c3ccccc3C(F)(F)F)C[C@H]2C(=O)NC2(C#N)CC2)n(-c2ccc(Cl)cc2)n1 [Example 194, (2S,4R)-1-[2-(4-Chloro-phenyl)-5-methyl-2H-pyrazol-3-yl]-4-(2-trifluoromethyl-benzenesulfonyl)-pyrrolidine-2-carboxylic acid (1-cyano-cyclopropyl)-amide]",IC50,[1],0.4 nM
same,IC50,[2],16600 nM
"Cc1cc(N2C[C@H](S(=O)(=O)c3ccccc3C(F)(F)F)C[C@H]2C(=O)NC2(C#N)CC2)n(-c2ccc(F)cc2)n1 [Example 195, (2S,4R)-1-[2-(4-Fluoro-phenyl)-5-methyl-2H-pyrazol-3-yl]-4-(2-trifluoromethyl-benzenesulfonyl)-pyrrolidine-2-carboxylic acid (1-cyano-cyclopropyl)-amide]",IC50,[1],3.6 nM
same,IC50,[2],≥ 25000 nM
"Cc1cc(N2C[C@H](S(=O)(=O)c3ccccc3C(F)(F)F)C[C@H]2C(=O)NC2(C#N)CC2)n(-c2cc[nH]c(=O)c2)n1 [Example 196, (2S,4R)-1-[5-Methyl-2-(2-oxo-1,2-dihydro-pyridin-4-yl)-2H-pyrazol-3-yl]-4-(2-trifluoromethyl-benzenesulfonyl)-pyrrolidine-2-carboxylic acid (1-cyano-cyclopropyl)-amide]",IC50,[1],0.3 nM
same,IC50,[2],41400 nM
"C[C@H](Oc1ccc(S(=O)(=O)[C@@H]2C[C@@H](C(=O)NC3(C#N)CC3)N(C(=O)C3CC3)C2)c(Cl)c1)C(F)(F)F [Example 197, (2S,4R)-4-[2-Chloro-4-((S)-2,2,2-trifluoro-1-methyl-ethoxy)-benzenesulfonyl]-1-cyclopropanecarbonyl-pyrrolidine-2-carboxylic acid (1-cyano-cyclopropyl)-amide]",IC50,[1],0.9 nM
same,IC50,[2],19000 nM
"C[C@H](Oc1ccc(S(=O)(=O)[C@@H]2C[C@H](C(=O)NC3(C#N)CC3)N(C(=O)C3CC3)C2)c(Cl)c1)C(F)(F)F [Example 198, (2R,4R)-4-[2-Chloro-4-((S)-2,2,2-trifluoro-1-methyl-ethoxy)-benzenesulfonyl]-1-cyclopropanecarbonyl-pyrrolidine-2-carboxylic acid (1-cyano-cyclopropyl)-amide]",IC50,[1],27 nM
same,IC50,[2],≥ 25000 nM
"C[C@H](Oc1ccc(S(=O)(=O)[C@@H]2C[C@@H](C(=O)NC3(C#N)CC3)N(C(=O)C3(C)CC3)C2)c(Cl)c1)C(F)(F)F [Example 199, (2S,4R)-4-[2-Chloro-4-((S)-2,2,2-trifluoro-1-methyl-ethoxy)-benzenesulfonyl]-1-(1-methyl-cyclopropanecarbonyl)-pyrrolidine-2-carboxylic acid (1-cyano-cyclopropyl)-amide]",IC50,[1],0.5 nM
same,IC50,[2],7740 nM
"C[C@H](Oc1ccc(S(=O)(=O)[C@@H]2C[C@H](C(=O)NC3(C#N)CC3)N(C(=O)C3(C)CC3)C2)c(Cl)c1)C(F)(F)F [Example 200, (2R,4R)-4-[2-Chloro-4-((S)-2,2,2-trifluoro-1-methyl-ethoxy)-benzenesulfonyl]-1-(1-methyl-cyclopropanecarbonyl)-pyrrolidine-2-carboxylic acid (1-cyano-cyclopropyl)-amide]",IC50,[1],46.7 nM
same,IC50,[2],≥ 25000 nM
"N#CC1(NC(=O)[C@@H]2C[C@@H](S(=O)(=O)c3ccc(OC4COC4)cc3Cl)CN2C(=O)C2(C(F)(F)F)CC2)CC1 [Example 201, (2S,4R)-4-[2-Chloro-4-(oxetan-3-yloxy)-benzenesulfonyl]-1-(1-trifluoromethyl-cyclopropanecarbonyl)-pyrrolidine-2-carboxylic acid (1-cyano-cyclopropyl)-amide]",IC50,[1],3.4 nM
same,IC50,[2],≥ 25000 nM
"N#CC1(NC(=O)[C@@H]2C[C@@H](S(=O)(=O)c3ccccc3C(F)(F)F)CN2C(=O)C2(c3ccc(Cl)cc3)CC2)CC1 [Example 202, (2S,4R)-1-[1-(4-Chloro-phenyl)-cyclopropanecarbonyl]-4-(2-trifluoromethyl-benzenesulfonyl)-pyrrolidine-2-carboxylic acid (1-cyano-cyclopropyl)-amide]",IC50,[1],0.1 nM
same,IC50,[2],606 nM
"C[C@H](Oc1ccc(S(=O)(=O)[C@@H]2C[C@@H](C(=O)NC3(C#N)CC3)N(C(=O)C(C)(C)C)C2)c(Cl)c1)C(F)(F)F [Example 203, (2S,4R)-4-[2-Chloro-4-((S)-2,2,2-trifluoro-1-methyl-ethoxy)-benzenesulfonyl]-1-(2,2-dimethyl-propionyl)-pyrrolidine-2-carboxylic acid (1-cyano-cyclopropyl)-amide]",IC50,[1],0.8 nM
same,IC50,[2],9330 nM
"C[C@H](Oc1ccc(S(=O)(=O)[C@@H]2C[C@H](C(=O)NC3(C#N)CC3)N(C(=O)C(C)(C)C)C2)c(Cl)c1)C(F)(F)F [Example 204, (2R,4R)-4-[2-Chloro-4-((S)-2,2,2-trifluoro-1-methyl-ethoxy)-benzenesulfonyl]-1-(2,2-dimethyl-propionyl)-pyrrolidine-2-carboxylic acid (1-cyano-cyclopropyl)-amide]",IC50,[1],205 nM
same,IC50,[2],≥ 25000 nM
"N#CC1(NC(=O)[C@@H]2C[C@@H](S(=O)(=O)c3ccccc3C(F)(F)F)CN2C(=O)C2(C(F)(F)F)CC2)CC1 [Example 205, (2S,4R)-4-(2-Trifluoromethyl-benzenesulfonyl)-1-(1-trifluoromethyl-cyclopropanecarbonyl)-pyrrolidine-2-carboxylic acid (1-cyano-cyclopropyl)-amide]",IC50,[1],0.2 nM
same,IC50,[2],72000 nM
"N#CC1(NC(=O)[C@@H]2C[C@@H](S(=O)(=O)c3ccccc3C(F)(F)F)CN2C(=O)CC(F)(F)F)CC1 [Example 206, (2S,4R)-4-(2-Trifluoromethyl-benzenesulfonyl)-1-(3,3,3-trifluoro-propionyl)-pyrrolidine-2-carboxylic acid (1-cyano-cyclopropyl)-amide]",IC50,[1],0.2 nM
same,IC50,[2],≥ 25000 nM
"CC1(C(=O)N2C[C@H](S(=O)(=O)c3ccccc3C(F)(F)F)C[C@H]2C(=O)NC2(C#N)CC2)CC1 [Example 207, (2S,4R)-1-(1-Methyl-cyclopropanecarbonyl)-4-(2-trifluoromethyl-benzenesulfonyl)-pyrrolidine-2-carboxylic acid (1-cyano-cyclopropyl)-amide]",IC50,[1],0.3 nM
same,IC50,[2],≥ 25000 nM
"CC(C)(C)OC(=O)N1C[C@H](S(=O)(=O)c2ccc(OCC(F)(F)F)cc2C(F)(F)F)C[C@H]1C(=O)NC1(C#N)CC1 [Example 208, (2S,4R)-2-(1-Cyano-cyclopropylcarbamoyl)-4-[4-(2,2,2-trifluoro-ethoxy)-2-trifluoromethyl-benzenesulfonyl]-pyrrolidine-1-carboxylic acid tert-butyl ester]",IC50,[1],0.8 nM
same,IC50,[2],≥ 25000 nM
"N#CC1(NC(=O)[C@@H]2C[C@@H](S(=O)(=O)c3ccc(F)cc3C(F)(F)F)CN2C(=O)C2(C(F)(F)F)CC2)CC1 [Example 209, (2S,4R)-4-(4-Fluoro-2-trifluoromethyl-benzenesulfonyl)-1-(1-trifluoromethyl-cyclopropanecarbonyl)-pyrrolidine-2-carboxylic acid (1-cyano-cyclopropyl)-amide]",IC50,[1],0.2 nM
same,IC50,[2],≥ 25000 nM
"CC(C)(C)C(=O)N1C[C@H](S(=O)(=O)c2ccc(F)cc2C(F)(F)F)C[C@H]1C(=O)NC1(C#N)CC1 [Example 210, (2S,4R)-1-(2,2-Dimethyl-propionyl)-4-(4-fluoro-2-trifluoromethyl-benzenesulfonyl)-pyrrolidine-2-carboxylic acid (1-cyano-cyclopropyl)-amide]",IC50,[1],0.4 nM
same,IC50,[2],≥ 25000 nM
"CC1(C(=O)N2C[C@H](S(=O)(=O)c3ccc(OCC(F)(F)F)cc3C(F)(F)F)C[C@H]2C(=O)NC2(C#N)CC2)CC1 [Example 211, (2S,4R)-1-(1-Methyl-cyclopropanecarbonyl)-4-[4-(2,2,2-trifluoro-ethoxy)-2-trifluoromethyl-benzenesulfonyl]-pyrrolidine-2-carboxylic acid (1-cyano-cyclopropyl)-amide]",IC50,[1],0.3 nM
same,IC50,[2],63900 nM
